Experiments:
A. planipennis [1] = assay: Field trapping experiment 3 (2010), green sticky prism traps, Ontario and Michigan; type: in vivo, Agrilus planipennis; details: lactone alone
Description: Field trapping. Three trapping experiments were carried out in green ash plantations (F. pennsylvanica Marsch) with low-to-moderate A. planipennis populations about 40 km southeast of Sarnia, Ontario (42° 58′ 0 N, 82° 24′ 0 W) in 2008, 2009 and 2010. Trees at these sites were generally healthy in appearance with low or no signs of decline, and only a small number of trees had obvious signs/symptoms of infestation by A. planipennis. In Ontario sites, trees were 20-25 years old, 4-6 m tall, 10-15 cm in diameter, and spaced about 2 m apart within a row and 2.5 m between rows. In 2010, the trapping experiment was replicated at four sites in Michigan, USA, in addition to the sites in Ontario. Sites in Michigan were 10-100 years old, 10-30 m tall, 15-70 cm in diameter, and located in a mixed woodlot. […] Traps were checked every 2 weeks and A. planipennis were collected, counted and sexed. […]
The effect of each attractant on mean catch of female and male A. planipennis was analyzed independently using ANOVA and a randomized complete block design. Sites were analyzed separately in 2009 due to differences in sex ratios. In 2010, sites in Ontario were analyzed separately from those in Michigan due to the considerable differences in stand conditions and height of traps with respect to the ash canopy. […]

A. planipennis [2] = assay: Two-choice Y-tube olfactometer assay; type: in vivo, Agrilus planipennis; details: males; lactone 10 μg, (3Z)-hexenol 5 μg; chi-square test
Description: A Y-tube olfactometer (Analytical Research Systems Inc, Gainsville, Fla.) was used to test for attraction of A. planipennis to lactone isomers and host volatiles. […] Each arm was connected to a cylinder that contained the stimulus. Charcoal filtered air was passed into each arm at a flow rate of 1.2 L/min. Treatments included the pheromone alone: (3Z)-lactone (10 μg); (3E)-lactone (10 μg); and 60:40 (3E):(3Z)-lactone (10 μg). Next, we tested bark sesquiterpenes and a green leaf volatile alone: Phoebe oil (25 μg and 2.5 μg) and (3Z)-hexenol (5 μg). We then tested the pheromone combined with bark sesquiterpenes: (3Z)-lactone (10 μg)+Phoebe oil (at both 25 μg and 2.5 μg); (3E)-lactone (10 μg)+Phoebe oil (at both 25 μg and 2.5 μg). Finally, we tested the pheromone combined with the green leaf volatile: (3Z)-lactone (10 μg)+(3Z)-hexenol (5 μg); and (3E)-lactone (10 μg)+(3Z)-hexenol (5 μg). Each stimulus (l μl for single compound treatments and a total of 2 μl for two-compound treatments) was diluted in hexane, placed on a strip of filter paper and given one minute for the solvent to evaporate before being placed in the olfactometer. A second filter paper, treated with the equivalent volume of solvent was placed in the other arm of the olfactometer to serve as the control. The apparatus was rinsed with acetone after each treatment, and the arm attached to the test stimulus was randomized between replicates.
For each treatment, we tested increasing numbers of adults until we obtained a minimum of 12 beetles responding to the stimuli (either positively or negatively). To obtain this minimum, we tested 15-54 beetles per treatment. For each trial, a single A. planipennis (mature virgin male or female, >10 days old) was given ten minutes to choose between the two stimuli; adults were used only once in the bioassay. […] A chi-square test was conducted for each independent trial.

A. planipennis antennae = assay: GC-EAD analysis; parameters: species or system Agrilus planipennis; details: synthetic mixture of (3E)- and (3Z)-lactones
Description: A Varian CP-3380 gas chromatograph with FID detector was modified for use with a GC-EAD signal recording device (IDAC-232). EAG data were analyzed using Syntech GC-EAD software v.2.6 (SYNTECH, The Netherlands). The column used for analysis was a Supelco SPB-5 capillary (30 m×0.32 mm×0.25 μm film) in the splitless mode with helium as carrier gas. The injection port was at 220° C. and the oven temperature was programmed from 70° C., held for 1 min and then increased at 10° C./min to 240° C. and held for 30 min. A number of GC-EAD runs on male and female volatiles were carried out. Both the (3Z)-lactone and (3E)-lactone were diluted to 10 μg/ml in hexane; 1 μl of diluted pheromone was injected for each GC-EAD run.
Ten nanograms was injected for the GC-EAD analysis consisting of 90% (3Z)-lactone and 10% (3E)-lactone using a DB-1 (15 m×0.25 mm ID, 1 μm film) capillary column (J&W Scientific, Folsom, Calif.). The GC oven temperature program was 50° C. for 1 min, then increased at 20° C./min and held at 280° C. for 2 min. The GC-EAD responses of five male and five female EAB antennae were analyzed.

| SMILES | trap captures compared to unbaited control, sites in Ontario (A. planipennis [1]; green traps in the canopy, Ontario, P<0.02) | attraction of males in Y-tube olfactometer vs hexane control (A. planipennis [2]) | GC-FID/EAD responses of male and female antennae (A. planipennis antennae) | trap catch compared to unbaited control (A. planipennis [1]; green traps, 2010, Ontario and Michigan) |
| --- | --- | --- | --- | --- |
| O=C1C/C=C\CCCCCCCCO1 [(3Z)-lactone, (3Z)-dodecen-12-olide] | slight increase in trap captures | not | significant responses | – |
| O=C1C/C=C/CCCCCCCCO1 [(3E)-lactone, (3E)-dodecen-12-olide] | – | significantly attracted | significant responses | did not affect trap catch |

From US9226503B2, “Composition and method for attraction of emerald ash borer Agrilus planipennis fairmaire (coleoptera: buprestidae)” (Her Majesty the Queen in Right of Canada, as represented by …, priority 2011, dated 2016)
